For test [1], the target named is T1, ΔF508-CFTR (Homo sapiens, UniProt P13569, DEL508-508).
T1 construct: host or cells: CFBE41o-, doxycycline-inducible
The test can be described thus: CFTR cell surface levels using HRP-tagged ΔF508-CFTR expressing CFBE cells, intrinsic corrector capacity. It is filed as cell-based. In short, it runs like this: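 Here the cells express ΔF508-CFTR with horseradish peroxidase inserted in extracellular loop 4, so only rescued channel at the surface gives luminescent signal. Compounds act on their own, 20 h at the reduced temperature of 33 °C; values are percent activity relative to DMSO and a 3 μM corrector.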

Test [2] deals with T1, ΔF508-CFTR. The test can be described thus: CFTR cell surface levels using HRP-tagged ΔF508-CFTR expressing CFBE cells, in the presence of a co-corrector. It is filed as cell-based. Summed up: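 Cells were seeded with 0.5 μg/mL doxycycline and held 68 h at 37 °C. Test compounds plus 3 μM co-corrector (final 0.1% DMSO) were then added for 20 h at 33 °C. Washed cells received HRP substrate, and luminescence was normalized between DMSO and 3 μM co-corrector controls.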

The mark [3] stands for this setting: HRP-tagged ΔF508-CFTR expressing CFBE cells, intrinsic corrector capacity (no co-corrector), 33° C., 20 hours.
Setting [4] is: HRP-tagged ΔF508-CFTR expressing CFBE cells, intrinsic corrector capacity (no co-corrector), 33° C., 20 hours, read-out: EC50.
[5] abbreviates: HRP-tagged ΔF508-CFTR expressing CFBE cells, in the presence of 3 μM co-corrector.
The mark [6] stands for this setting: HRP-tagged ΔF508-CFTR expressing CFBE cells, in the presence of 3 μM co-corrector, read-out: EC50.
[7] abbreviates: HRP-tagged ΔF508-CFTR CFBE41o- cells, compounds alone (intrinsic corrector capacity), 20 hours at 33° C., positive control 3 μM corrector.
Setting [8] is: HRP-tagged ΔF508-CFTR CFBE41o- cells, compounds alone (intrinsic corrector capacity), 20 hours at 33° C., read-out: EC50.

In general, EC50 refers to the concentration needed to bring the measured effect to its halfway point.

T1 sequence (P13569 with tags, fused parts or gaps DEL508-508): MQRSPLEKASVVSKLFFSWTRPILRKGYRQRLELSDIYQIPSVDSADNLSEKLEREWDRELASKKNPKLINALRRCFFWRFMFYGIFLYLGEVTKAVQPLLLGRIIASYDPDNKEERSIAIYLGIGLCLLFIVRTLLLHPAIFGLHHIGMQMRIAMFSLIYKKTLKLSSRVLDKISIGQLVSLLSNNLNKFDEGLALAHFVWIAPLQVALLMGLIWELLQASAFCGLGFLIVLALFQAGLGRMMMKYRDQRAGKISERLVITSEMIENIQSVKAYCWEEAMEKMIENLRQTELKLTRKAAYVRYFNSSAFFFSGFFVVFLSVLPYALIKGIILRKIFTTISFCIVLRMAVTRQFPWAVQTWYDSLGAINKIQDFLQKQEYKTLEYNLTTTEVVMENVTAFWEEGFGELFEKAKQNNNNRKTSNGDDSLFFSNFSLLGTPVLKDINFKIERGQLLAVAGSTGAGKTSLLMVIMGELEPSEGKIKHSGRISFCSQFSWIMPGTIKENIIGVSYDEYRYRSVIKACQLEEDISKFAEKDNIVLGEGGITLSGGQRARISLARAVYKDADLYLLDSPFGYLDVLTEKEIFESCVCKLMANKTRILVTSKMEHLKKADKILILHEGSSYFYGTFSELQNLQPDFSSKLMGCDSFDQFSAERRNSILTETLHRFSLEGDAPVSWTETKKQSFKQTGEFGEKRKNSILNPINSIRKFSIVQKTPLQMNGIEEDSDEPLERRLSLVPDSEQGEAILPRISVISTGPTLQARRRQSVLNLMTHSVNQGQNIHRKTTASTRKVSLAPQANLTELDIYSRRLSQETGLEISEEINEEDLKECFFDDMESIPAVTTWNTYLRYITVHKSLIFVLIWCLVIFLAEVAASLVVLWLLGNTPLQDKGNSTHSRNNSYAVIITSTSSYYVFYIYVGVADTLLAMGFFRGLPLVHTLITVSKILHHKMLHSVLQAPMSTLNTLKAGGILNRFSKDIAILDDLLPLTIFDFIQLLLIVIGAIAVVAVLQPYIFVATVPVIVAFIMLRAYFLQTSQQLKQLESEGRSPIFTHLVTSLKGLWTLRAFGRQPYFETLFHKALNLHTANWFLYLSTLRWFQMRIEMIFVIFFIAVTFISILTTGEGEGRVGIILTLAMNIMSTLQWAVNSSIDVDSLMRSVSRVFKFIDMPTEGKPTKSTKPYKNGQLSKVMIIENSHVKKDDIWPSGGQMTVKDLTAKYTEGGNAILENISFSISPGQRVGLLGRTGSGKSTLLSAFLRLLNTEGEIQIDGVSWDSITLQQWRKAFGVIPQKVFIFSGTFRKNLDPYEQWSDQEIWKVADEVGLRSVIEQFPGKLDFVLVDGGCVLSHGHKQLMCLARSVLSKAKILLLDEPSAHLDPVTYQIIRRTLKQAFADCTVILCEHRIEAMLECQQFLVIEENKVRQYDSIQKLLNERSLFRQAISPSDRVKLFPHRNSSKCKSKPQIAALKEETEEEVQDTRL

Consider `COc1cccc(-n2nc(C3CCC3)c3c(N4CCC(N5CCOCC5)CC4)cc(C(=O)O)nc32)c1` [compound 822, 3-cyclobutyl-1-(3-methoxyphenyl)-4-[4-(morpholin-4-yl)piperidin-1-yl]-1H-pyrazolo[3,4-b]pyridine-6-carboxylic acid], for which the entries for the “% Activation” value in test [1] (setting [3]) and in test [2] (setting [5]) were 272.3% and 472.75%, respectively. The 50% effective concentration (EC50) in test [1] (setting [4]) worked out at 301 nM; in test [2] (setting [6]) it was 1140 nM.

On to `O=C1CCC[C@H]2CN(c3cc(C(=O)O)nc4c3c(C3CCC3)nn4-c3ccccc3)C[C@H]2N1` [compound 505, 3-cyclobutyl-4-[(5aS,8aS)-2-oxooctahydropyrrolo[3,4-b]azepin-7(1H)-yl]-1-phenyl-1H-pyrazolo[3,4-b]pyridine-6-carboxylic acid], for which the “% Activation” value is recorded as -6.616% in test [1] (setting [3]) and 118.3% in test [2] (setting [5]). Moreover, the concentration for a half-maximal effect (EC50) in test [1] (setting [4]) and in test [2] (setting [6]) was over 10000 nM each time.

As to `CC(C)c1nn(-c2cccc(N3CCOCC3)c2)c2nc(C(=O)O)cc(-c3cnc(N(C)C4CCOCC4)nc3)c12` [compound 231, 4-{2-[methyl(oxan-4-yl)amino]pyrimidin-5-yl}-1-[3-(morpholin-4-yl)phenyl]-3-(propan-2-yl)-1H-pyrazolo[3,4-b]pyridine-6-carboxylic acid], the figures for the “% Activation” value in test [1] (setting [7]) and in test [2] (setting [5]) were 419% and 625.45%, respectively. Further, the 50% effective concentration (EC50) is 733 nM in test [1] (setting [8]) and 570 nM in test [2] (setting [6]).

Consider `Cc1nn(C)cc1-c1cc(C(=O)O)nc2c1c(C(C)C)nn2C1CCCCC1` [compound 352, 1-cyclohexyl-4-(1,3-dimethyl-1H-pyrazol-4-yl)-3-(propan-2-yl)-1H-pyrazolo[3,4-b]pyridine-6-carboxylic acid], for which the “% Activation” value in test [1] (setting [7]) is given as 55.175%; in test [2] (setting [5]), 210.15%. For the same compound, the EC50 in test [1] (setting [8]) turned out to be 1510 nM; in test [2] (setting [6]), 1430 nM.

Consider `COc1ccc(-n2nc(C)c3c(-c4ccc(N5CCOCC5)cc4)cc(C(=O)O)nc32)cn1` [compound 61, 1-(6-methoxypyridin-3-yl)-3-methyl-4-[4-(morpholin-4-yl)phenyl]-1H-pyrazolo[3,4-b]pyridine-6-carboxylic acid], for which the figures for the “% Activation” value in test [1] (setting [7]) and in test [2] (setting [5]) were 96.05% and 253.6%, respectively. In addition, the EC50 worked out at 3340 nM in test [1] (setting [8]) and 2350 nM in test [2] (setting [6]).

For the compound `CC(C)(C)OC(=O)NC[C@@H]1CCN(c2cc(C(=O)O)nc3c2c(C2CCC2)nn3-c2ccccc2)C1` [compound 671, 4-[(3S)-3-{[(tert-butoxycarbonyl)amino]methyl}pyrrolidin-1-yl]-3-cyclobutyl-1-phenyl-1H-pyrazolo[3,4-b]pyridine-6-carboxylic acid], the EC50 came to 1610 nM in test [1] and 943 nM in test [2]. Moreover, the figures for the “% Activation” value in test [1] (setting [3]) and in test [2] (setting [5]) were 190.1% and 357.4%, respectively.

For `CC(C)c1nn(-c2cccc(N3CCCC3)c2)c2nc(C(=O)O)cc(-c3ccc(N(C)C4CCOCC4)nc3)c12` [compound 250, 4-{6-[methyl(oxan-4-yl)amino]pyridin-3-yl}-3-(propan-2-yl)-1[3-(pyrrolidin-1-yl)phenyl]-1H-pyrazolo[3,4-b]pyridine-6-carboxylic acid], the “% Activation” value was 394.7% in test [1] (setting [7]) and 622.03% in test [2] (setting [5]). Besides, the 50% effective concentration (EC50) was 456 nM in test [1] (setting [8]) and 508 nM in test [2] (setting [6]).

`CC(C)c1nn(C2CCCN(CC(F)(F)F)C2)c2nc(C(=O)O)cc(-c3ccc(N4CCOCC4)cc3)c12` (stereo not shown) [compound 161, 4-[4-(morpholin-4-yl)phenyl]-3-(propan-2-yl)-1-[1-(2,2,2-trifluoroethyl)piperidin-3-yl]-1H-pyrazolo[3,4-b]pyridine-6-carboxylic acid]: the results for the “% Activation” value in test [1] (setting [7]) and in test [2] (setting [5]) were 111.83% and 333.87%, respectively. Moreover, the EC50 came out at 921 nM in test [1] (setting [8]) and 795 nM in test [2] (setting [6]).

On to `CC(C)c1nn(-c2ccc(F)cc2)c2nc(C(=O)O)cc(N3CCC(CC4CCCCC4)CC3)c12` [compound 780, 4-[4-(cyclohexylmethyl)piperidin-1-yl]-1-(4-fluorophenyl)-3-(propan-2-yl)-1H-pyrazolo[3,4-b]pyridine-6-carboxylic acid], for which the “% Activation” value in test [1] (setting [3]) is on record as 233.5%; in test [2] (setting [5]), 429.5%. The EC50 in test [1] (setting [4]) worked out at 249 nM; in test [2] (setting [6]) it was 124 nM.

Take `CC(C)c1nn(-c2cccc(F)c2)c2nc(C(=O)O)cc(-c3ccc(N(C)C4CCOCC4)nc3)c12` [compound 283, 1-(3-fluorophenyl)-4-{6-[methyl(oxan-4-yl)amino]pyridin-3-yl}-3-(propan-2-yl)-1H-pyrazolo[3,4-b]pyridine-6-carboxylic acid]: the “% Activation” value is 233.17% in test [1] (setting [7]) and 435.2% in test [2] (setting [5]). In addition, the EC50 worked out at 649 nM in test [1] (setting [8]) and 367 nM in test [2] (setting [6]).

On to `O=C(O)c1cc(OCCC2OCCCO2)c2c(C3CCC3)nn(-c3ccccc3)c2n1` [compound 488, 3-cyclobutyl-4-[2-(1,3-dioxan-2-yl)ethoxy]-1-phenyl-1H-pyrazolo[3,4-b]pyridine-6-carboxylic acid], for which the results for the “% Activation” value in test [1] (setting [3]) and in test [2] (setting [5]) were 95.49% and 261.9%, respectively. In addition, the concentration giving a half-maximal response (EC50) in test [1] (setting [4]) worked out at 755 nM; in test [2] (setting [6]), 462 nM.

Take `O=C(O)c1cc(OCCOC2COC2)c2c(C3CCC3)nn(-c3ccccc3)c2n1` [compound 483, 3-cyclobutyl-4-{2-[(oxetan-3-yl)oxy]ethoxy}-1-phenyl-1H-pyrazolo[3,4-b]pyridine-6-carboxylic acid]: the “% Activation” value is listed as 142.4% in test [1] (setting [3]) and 267% in test [2] (setting [5]). The EC50 was found to be 897 nM in test [1] (setting [4]) and 367 nM in test [2] (setting [6]).

On to `O=C(CN1CCN(c2cc(C(=O)O)nc3c2c(C2CCC2)nn3-c2ccccc2)CC1)NC1CCCCC1` [compound 540, 3-cyclobutyl-4-{4-[2-(cyclohexylamino)-2-oxoethyl]piperazin-1-yl}-1-phenyl-1H-pyrazolo[3,4-b]pyridine-6-carboxylic acid], for which the “% Activation” value is listed as 142.2% in test [1] (setting [3]) and 314.05% in test [2] (setting [5]). The values for the EC50 in test [1] (setting [4]) and in test [2] (setting [6]) were 452 nM and 324 nM, respectively.

For the compound `O=C(O)c1cc(OCCC2CC(F)(F)C2)c2c(C3CCC3)nn(-c3ccccc3)c2n1` [compound 477, 3-cyclobutyl-4-[2-(3,3-difluorocyclobutyl)ethoxy]-1-phenyl-1H-pyrazolo[3,4-b]pyridine-6-carboxylic acid], the entries for the “% Activation” value in test [1] (setting [3]) and in test [2] (setting [5]) were 97.78% and 266.3%, respectively. Also, the half-maximal effective concentration (EC50) turned out to be 1020 nM in test [1] (setting [4]) and 501 nM in test [2] (setting [6]).

Take `CCC1(COc2cc(C(=O)O)nc3c2c(C2CCC2)nn3-c2ccccc2)COCOC1` [compound 620, 3-cyclobutyl-4-[(5-ethyl-1,3-dioxan-5-yl)methoxy]-1-phenyl-1H-pyrazolo[3,4-b]pyridine-6-carboxylic acid]: the “% Activation” value is listed as 147.4% in test [1] (setting [3]) and 323.25% in test [2] (setting [5]). Also, the EC50 stood at 250 nM in test [1] (setting [4]) and 170 nM in test [2] (setting [6]).

Consider `CC1(F)CN(c2cc(C(=O)O)nc3c2c(C2CCC2)nn3-c2ccccc2)C1` [compound 451, 3-cyclobutyl-4-(3-fluoro-3-methylazetidin-1-yl)-1-phenyl-1H-pyrazolo[3,4-b]pyridine-6-carboxylic acid], for which the “% Activation” value is recorded as 71.425% in test [1] (setting [3]) and 234.95% in test [2] (setting [5]). For the same compound, the half-maximal effective concentration (EC50) was 1290 nM in test [1] (setting [4]) and 874 nM in test [2] (setting [6]).

The record behind these values is patent US9796711B2, “Substituted pyrazolo[3,4-b]pyridin-6-carboxylic acids and method of use” (AbbVie S.àr.l., priority 2015, dated 2017).
